Reference: patent publication US9221766B2, “Compounds as diacylglycerol acyltransferase inhibitors” (GlaxoSmithKline LLC, priority 2012, dated 2015)

What follows are compounds tested against T1, Human DGAT1 (Homo sapiens, UniProt O75907) (assay: human DGAT1 lipid extraction (LE) assay, inhibition of triacylglycerol product formation). Conditions: human DGAT1 microsomes from Sf9 cells, read-out: hDGAT LE IC50.
T1 construct: made in house; host or cells: Sf9 insect cells (baculovirus); microsomes used as enzyme
T1 sequence (O75907 1-488): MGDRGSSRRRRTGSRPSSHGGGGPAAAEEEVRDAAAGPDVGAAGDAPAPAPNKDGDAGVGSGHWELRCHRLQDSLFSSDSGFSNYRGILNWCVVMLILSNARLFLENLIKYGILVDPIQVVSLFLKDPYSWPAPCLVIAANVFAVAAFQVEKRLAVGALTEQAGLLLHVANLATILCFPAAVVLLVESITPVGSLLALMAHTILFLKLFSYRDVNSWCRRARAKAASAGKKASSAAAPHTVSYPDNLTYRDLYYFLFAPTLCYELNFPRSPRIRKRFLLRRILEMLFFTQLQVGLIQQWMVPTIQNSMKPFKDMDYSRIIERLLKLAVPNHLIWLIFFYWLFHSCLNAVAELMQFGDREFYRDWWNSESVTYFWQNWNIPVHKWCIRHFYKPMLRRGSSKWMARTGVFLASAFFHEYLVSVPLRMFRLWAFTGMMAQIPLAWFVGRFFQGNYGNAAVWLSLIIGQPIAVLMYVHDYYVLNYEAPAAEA
Assay type: biochemical
Description: Human DGAT1 was expressed in Sf9 insect cells using a baculovirus expression system. Microsomes were prepared and used as enzyme for in vitro inhibition testing in either of two formats measuring production of coenzyme A or tridecanoylglycerol product, respectively. All steps were performed at 21-23° C. All data for DGAT1 inhibition by test compounds were collected under conditions where product formation was linear with reaction time.
For inhibition of triacylglycerol product formation, 11 uL reactions were run in white Polyplate-384 (PerkinElmer6007300) starting with a 30 minute pre-reaction incubation of 5 uL of 2.2× enzyme and 1 uL of 100% DMSO containing test compound or control compound, {4-[4-(4-amino-7,7-dimethyl-7H-pyrimido[4,5-b][1,4]oxazin-6-yl)phenyl]cyclohexyl}acetic acid. Some assays were performed with inclusion of didecanoylglycerol in the pre-reaction incubation of test compounds and enzyme. Reactions were initiated after 30 minute pre-reaction incubation via addition of 5 uL of 2.2× substrate. Final reaction conditions consisted of 50 mM HEPES pH 7.5, 2 mM MgCl2, 1 mM CHAPS, 25 uM didecanoylglycerol, 0.5 uM decanoyl-CoA, 0.3 nCi/uL [^14C-]decanoyl-CoA or 0.5 nCi/uL [^3H]-decanoyl-CoA, 0.05-4 ug/mL microsomal protein, and 1% DMSO. Following 60 minute reaction incubation, reactions were stopped with 40 uL of 45% isopropanol and 50 mM sodium carbonate in water and mixed. Extraction of tridecanoylglycerol product was accomplished via addition of 30 uL Microscint-E (Perkin Elmer) and 2 hours of incubation (sealed). Plates were read on a Microbeta Microplate reader Inhibition was normalized to controls containing DMSO or 10 uM {4-[4-(4-amino-7,7-dimethyl-7H-pyrimido[4,5-b][1,4]oxazin-6-yl)phenyl]cyclohexyl}acetic acid. IC50s were fitted using GraphPad Prism to a sigmoidal dose response.
`O=C(O)CC1(CC(F)(F)F)CCc2cc(-c3ccc(Nc4ccc(Cl)cc4)cn3)ccc2C1=O` (single isomer, unassigned) [Example 6, 2-(6-(5-(4-chlorophenylamino)pyridin-2-yl)-1-oxo-2-(2,2,2-trifluoroethyl)-1,2,3,4-tetrahydronaphthalen-2-yl)acetic acid] showed an IC50 of at most 100 nM. `O=C(O)CC1(CC(F)(F)F)CCc2cc(-c3ccc(Nc4ccc(C(F)(F)F)nc4)nn3)ccc2C1=O` (single isomer, unassigned) [Example 24, 2-(1-oxo-2-(2,2,2-trifluoroethyl)-6-(6-(6-(trifluoromethyl)pyridin-3-ylamino)pyridazin-3-yl)-1,2,3,4-tetrahydronaphthalen-2-yl)acetic acid] was tested, and the IC50 was 500 to 10000 nM. `O=C(O)CC1(CC(F)(F)F)CCc2cc(-c3cnc(Nc4ccc(Cl)cn4)cn3)ccc2C1=O` (single isomer, unassigned) [Example 17, 2-(6-(5-(5-chloropyridin-2-ylamino)pyrazin-2-yl)-1-oxo-2-(2,2,2-trifluoroethyl)-1,2,3,4-tetrahydronaphthalen-2-yl)acetic acid] showed an IC50 of 100 to 500 nM. `CCC1(CC(=O)O)CCc2cc(-c3ccc(Nc4ccc(C(F)(F)F)nc4)cn3)ccc2C1=O` (single isomer, unassigned) [Example 5, 2-(2-ethyl-1-oxo-6-(5-(6-(trifluoromethyl)pyridin-3-ylamino)pyridin-2-yl)-1,2,3,4-tetrahydronaphthalen-2-yl)acetic acid] showed an IC50 of 100 to 500 nM. With `Cc1ccc(Nc2ccc(-c3ccc4c(c3)CCC(CC(=O)O)(CC(F)(F)F)C4=O)nc2)nc1` (single isomer, unassigned) [Example 13, 2-(6-(5-(5-methylpyridin-2-ylamino)pyridin-2-yl)-1-oxo-2-(2,2,2-trifluoroethyl)-1,2,3,4-tetrahydronaphthalen-2-yl)acetic acid] the IC50 was 100 to 500 nM. With `O=C(O)CC1(CC(F)(F)F)CCc2cc(-c3ccc(Nc4ccc(C(F)(F)F)nc4)nn3)ccc2C1=O` (single isomer, unassigned) [Example 23, 2-(1-oxo-2-(2,2,2-trifluoroethyl)-6-(6-(6-(trifluoromethyl)pyridin-3-ylamino)pyridazin-3-yl)-1,2,3,4-tetrahydronaphthalen-2-yl)acetic acid] the IC50 was at most 100 nM. With `O=C(O)CC1(CC(F)(F)F)CCc2cc(-c3cnc(Nc4ccc(C(F)(F)F)nc4)cn3)ccc2C1=O` (single isomer, unassigned) [Example 15, 2-(1-oxo-2-(2,2,2-trifluoroethyl)-6-(5-(6-(trifluoromethyl)pyridin-3-ylamino)pyrazin-2-yl)-1,2,3,4-tetrahydronaphthalen-2-yl)acetic acid] the IC50 was 500 to 10000 nM. `O=C(O)CC1(CC(F)(F)F)CCc2cc(-c3cnc(Nc4ccc(Cl)cn4)cn3)ccc2C1=O` (single isomer, unassigned) [Example 18, 2-(6-(5-(5-chloropyridin-2-ylamino)pyrazin-2-yl)-1-oxo-2-(2,2,2-trifluoroethyl)-1,2,3,4-tetrahydronaphthalen-2-yl)acetic acid] was tested, and the IC50 was 100 to 500 nM. `O=C(O)CC1(CC(F)(F)F)CCc2cc(-c3cnc(Nc4ccc5c(c4)OCO5)cn3)ccc2C1=O` (single isomer, unassigned) [Example 19, 2-(6-(5-(benzo[d][1,3]dioxol-5-ylamino)pyrazin-2-yl)-1-oxo-2-(2,2,2-trifluoroethyl)-1,2,3,4-tetrahydronaphthalen-2-yl)acetic acid] was tested, and the IC50 was 100 to 500 nM. For `O=C(O)CC1(CC(F)(F)F)CCc2cc(-c3ccc(Nc4ccc(F)c(F)c4)cn3)ccc2C1=O` (single isomer, unassigned) [Example 10, 2-(6-(5-(3,4-difluorophenylamino)pyridin-2-yl)-1-oxo-2-(2,2,2-trifluoroethyl)-1,2,3,4-tetrahydronaphthalen-2-yl)acetic acid], the IC50 was at most 100 nM. `CC1(CC(=O)O)CCc2cc(-c3ccc(Nc4ccc(C(F)(F)F)nc4)cn3)ccc2C1=O` (single isomer, unassigned) [Example 3, 2-(2-Methyl-1-oxo-6-(5-(6-(trifluoromethyl)pyridin-3-ylamino)pyridin-2-yl)-1,2,3,4-tetrahydronaphthalen-2-yl)acetic acid] gave an IC50 of 500 to 10000 nM. With `O=C(O)CC1(CC(F)(F)F)CCc2cc(-c3cnc(Nc4cccc(Cl)c4)s3)ccc2C1=O` (single isomer, unassigned) [Example 26, 2-(6-(2-(3-Chlorophenylamino)thiazol-5-yl)-1-oxo-2-(2,2,2-trifluoroethyl)-1,2,3,4-tetrahydronaphthalen-2-yl)acetic acid] the IC50 was 100 to 500 nM. Compound `Cc1ccc(Nc2cnc(-c3ccc4c(c3)CCC(CC(=O)O)(CC(F)(F)F)C4=O)cn2)nc1` (single isomer, unassigned) [Example 16, 2-(6-(5-(5-methylpyridin-2-ylamino)pyrazin-2-yl)-1-oxo-2-(2,2,2-trifluoroethyl)-1,2,3,4-tetrahydronaphthalen-2-yl)acetic acid] has an IC50 of 100 to 500 nM. `Cc1ccc(Nc2ccc(-c3ccc4c(c3)CCC(CC(=O)O)(CC(F)(F)F)C4=O)nc2)nc1` (single isomer, unassigned) [Example 12, 2-(6-(5-(5-methylpyridin-2-ylamino)pyridin-2-yl)-1-oxo-2-(2,2,2-trifluoroethyl)-1,2,3,4-tetrahydronaphthalen-2-yl)acetic acid] was tested, and the IC50 was at most 100 nM. In the case of `O=C(O)CC1(CC(F)(F)F)CCc2cc(-c3cnc(Nc4ccc(C(F)(F)F)nc4)s3)ccc2C1=O` (single isomer, unassigned) [Example 27, 2-(1-oxo-2-(2,2,2-trifluoroethyl)-6-(2-(6-(trifluoromethyl)pyridin-3-ylamino)thiazol-5-yl)-1,2,3,4-tetrahydronaphthalen-2-yl)acetic acid], the IC50 is reported as 100 to 500 nM. With `O=C(O)CC1(CC(F)(F)F)CCc2cc(-c3ccc(Nc4ccc(Cl)cc4)cn3)ccc2C1=O` (single isomer, unassigned) [Example 2, 2-(6-(5-(4-Chlorophenylamino)pyridin-2-yl)-1-oxo-2-(2,2,2-trifluoroethyl)-1,2,3,4-tetrahydronaphthalen-2-yl)acetic acid] the IC50 was at most 100 nM. In the case of `O=C(O)CC1(CC(F)(F)F)CCc2cc(-c3ccc(Nc4cccc(Cl)c4)cn3)ccc2C1=O` (single isomer, unassigned) [Example 11, 2-(6-(5-(3-chlorophenylamino)pyridin-2-yl)-1-oxo-2-(2,2,2-trifluoroethyl)-1,2,3,4-tetrahydronaphthalen-2-yl)acetic acid], the IC50 is reported as 100 to 500 nM. `Cc1cnc(Nc2ccc(-c3ccc4c(c3)CCC(CC(=O)O)(CC(F)(F)F)C4=O)nn2)s1` (single isomer, unassigned) [Example 25, 2-(6-(6-(5-methylthiazol-2-ylamino)pyridazin-3-yl)-1-oxo-2-(2,2,2-trifluoroethyl)-1,2,3,4-tetrahydronaphthalen-2-yl)acetic acid] was tested, and the IC50 was 500 to 10000 nM. `O=C(O)CC1(CC(F)(F)F)CCc2cc(-c3cnc(Nc4ccc5c(c4)OCO5)cn3)ccc2C1=O` (single isomer, unassigned) [Example 20, 2-(6-(5-(benzo[d][1,3]dioxol-5-ylamino)pyrazin-2-yl)-1-oxo-2-(2,2,2-trifluoroethyl)-1,2,3,4-tetrahydronaphthalen-2-yl)acetic acid] gave an IC50 of 500 to 10000 nM. Work on `Cc1ccc(Nc2ccc(-c3ccc4c(c3)CCC(CC(=O)O)(CC(F)(F)F)C4=O)nn2)cn1` (single isomer, unassigned) [Example 22, 2-(6-(6-(6-methylpyridin-3-ylamino)pyridazin-3-yl)-1-oxo-2-(2,2,2-trifluoroethyl)-1,2,3,4-tetrahydronaphtha-len-2-yl)acetic acid] yielded an IC50 of at most 100 nM. For `O=C(O)CC1(CC(F)(F)F)CCc2cc(-c3ccc(Nc4ccc(Cl)cn4)cn3)ccc2C1=O` (single isomer, unassigned) [Example 7, 2-(6-(5-(5-chloropyridin-2-ylamino)pyridin-2-yl)-1-oxo-2-(2,2,2-trifluoroethyl)-1,2,3,4-tetrahydronaphthalen-2-yl)acetic acid], the IC50 was at most 100 nM. For `O=C(O)CC1(CC(F)(F)F)CCc2cc(-c3ccc(Nc4cccc(Cl)c4)nn3)ccc2C1=O` (single isomer, unassigned) [Example 21, 2-(6-(6-((3-chlorophenyl)amino)pyridazin-3-yl)-1-oxo-2-(2,2,2-trifluoroethyl)-1,2,3,4-tetrahydronaphthalen-2-yl)acetic acid], the IC50 was at most 100 nM.
